Converted amounts (≈) assume the structure as drawn.
Details: buffer; pH 7.4; 200.0 µM

Going from `O=C(Cc1ccc(Cl)cc1)Nc1ncccn1` to `O=C(Nc1ccc(Cl)cc1)c1ccco1`, the solubility kinetic falls from over 37.2 µg/mL to 30.8 µg/mL (≈ 139 µM).

`COc1ccccc1CNC(=O)N1CCN(c2ccccc2)CC1` and `COc1cccc(N2CCN(C(=O)CSc3ccc(F)cc3)CC2)c1` cannot be ordered by solubility kinetic: over 48.8 µg/mL for the first, 50.2 µg/mL (≈ 139 µM) for the second.

`CC(=O)N(C)Cc1ccc(C(=O)CSc2nnc(C3CC3)n2C2CC2)cc1` and `CCc1ccc(OCC(=O)OC(C)C(=O)NC2CC2)cc1` (stereo not given) cannot be ordered by solubility kinetic: over 57.7 µg/mL for the first, over 43.7 µg/mL for the second.

`O=C(O)COc1ccccc1/C=N/NC(=O)c1ccc(F)cc1` and `COc1ccc(C(=O)NCCNC(=O)c2ccccn2)cc1` cannot be ordered by solubility kinetic: over 47.4 µg/mL for the first, over 44.9 µg/mL for the second.

`Cc1cc(C(=O)Nc2ccc(N3CCOCC3)c(Cl)c2)c(C)o1` and `O=C(NCCN1CCOCC1)c1ccc(Cl)c([N+](=O)[O-])c1` are within 1.5-fold of each other in solubility kinetic: 45.6 µg/mL (≈ 136 µM) for the first, 41.4 µg/mL (≈ 132 µM) for the second.

`Cc1ccc(NC(=O)CNC(=O)c2cccs2)nc1` and `CC1CCC(NC(=O)CNC(=O)c2cccs2)CC1` (stereo not given) cannot be ordered by solubility kinetic: over 41.3 µg/mL for the first, over 42.1 µg/mL for the second.

Compared with `CCOC(=O)c1sc(NC(=O)c2ccc3nc[nH]c3c2)nc1C`, `CCOC(=O)c1c(C)[nH]c(C)c1C(=O)COC(=O)c1cccnc1Cl` is higher in solubility kinetic: 3.7 µg/mL (≈ 11.2 µM) for the first, over 54.7 µg/mL for the second.

`COc1ccccc1C(=O)OCC(=O)c1ccc(CNC(C)=O)s1` and `COC(=O)c1sccc1NC(=O)Nc1ccccc1OC` are within 1.5-fold of each other in solubility kinetic: 50.1 µg/mL (≈ 144 µM) for the first, 40 µg/mL (≈ 131 µM) for the second.

`O=c1[nH]c2ccc(S(=O)(=O)N3CCCC3)cc2[nH]1` and `O=C1CN(S(=O)(=O)c2cc(Br)ccc2Br)CCN1` cannot be ordered by solubility kinetic: over 40.1 µg/mL for the first, over 59.7 µg/mL for the second.

`CN(CC(=O)Nc1ccc(Cl)c(Cl)c1)C(=O)C1CCC1` and `CN(CC(=O)Nc1ccccc1Cl)C(=O)CN1C(=O)C2CC=CCC2C1=O` (stereo not given) cannot be ordered by solubility kinetic: over 47.3 µg/mL for the first, 50.3 µg/mL (≈ 129 µM) for the second.

First: CC(C)(C)NC(=O)/C=C/c1cccs1
Second: CC(C)(C)NC(=O)N1c2ccccc2Sc2ccccc21
The solubility kinetic of the first is higher: over 31.4 µg/mL for the first, 23 µg/mL (≈ 77.1 µM) for the second.

Compared with `CCN(CC)c1ccc(N)cc1S(=O)(=O)Nc1ccccc1OC`, `COc1cc(CCC(C)NCc2ccccc2)ccc1O` (stereo not given) is higher in solubility kinetic: 41.8 µg/mL (≈ 120 µM) for the first, over 42.8 µg/mL for the second.

Going from `COc1ccc(CCNC(=O)c2oc3ccc(OC)cc3c2C)cc1` to `COc1ccc(CCNC(=O)c2ccc(Cl)nc2)cc1`, the solubility kinetic rises from 2.3 µg/mL (≈ 6.78 µM) to 36.5 µg/mL (≈ 126 µM) (16-fold).

Compared with `Cc1ccc(NC(=O)COC(=O)CCNS(=O)(=O)c2c(Cl)cccc2Cl)cc1`, `O=C(COC(=O)Cc1c(Cl)cccc1Cl)NCc1ccco1` is higher in solubility kinetic: 48.5 µg/mL (≈ 109 µM) for the first, over 51.3 µg/mL for the second.

Compared with `CC(=O)Nc1ccc(NC(=O)Nc2ccccc2C)cc1`, `Cc1cccc(NC(=O)CCCc2ccccc2)c1C` is lower in solubility kinetic: 1.8 µg/mL (≈ 6.35 µM) for the first, under 0.6 µg/mL for the second.

First: CC(=O)c1cccc(NC(=O)CCNC(=O)c2ccccc2Cl)c1
Second: CS(=O)(=O)N(CC(=O)Nc1cccc(Br)c1)Cc1ccccc1
The solubility kinetic of the first is higher: over 51.7 µg/mL for the first, 51.3 µg/mL (≈ 129 µM) for the second.

First: CC(=O)c1ccc(OCC(=O)NC(=O)NC2CCCCC2)cc1
Second: O=C(COC(=O)c1ccccc1Cl)NC1CCCCCCC1
The solubility kinetic of the first is 3.7-fold lower: 9.3 µg/mL (≈ 29.2 µM) for the first, 34.1 µg/mL (≈ 105 µM) for the second.

First: O=c1[nH]cc(S(=O)(=O)Nc2ccc3c(c2)OCO3)c(=O)[nH]1
Second: CN(C)S(=O)(=O)c1cccc(NC(=O)c2c[nH]c3ccccc23)c1
The solubility kinetic of the first is higher: over 46.7 µg/mL for the first, 42.6 µg/mL (≈ 124 µM) for the second.

Compared with `O=C1CNC(=S)N1C1CCCCCC1`, `N/C(=N\OC(=O)C1CCCCC1)c1cccc(Br)c1` is 6.8-fold lower in solubility kinetic: 23.8 µg/mL (≈ 112 µM) for the first, 3.5 µg/mL (≈ 10.8 µM) for the second.

Going from `COc1ccc(C(=O)O/N=C(/c2ccccc2)c2ccncc2)cc1` to `CN(C)c1ccc(C(=O)N(Cc2ccccc2)Cc2ccccc2)cc1`, the solubility kinetic falls from 5.6 µg/mL (≈ 16.8 µM) to under 0.4 µg/mL.

`COC(=O)C1CCN(c2cc(Cl)nc(N)n2)CC1` and `COc1ccc(CC(=O)N2CCN(c3cccc(C)c3C)CC2)cc1` are within 1.5-fold of each other in solubility kinetic: 24.5 µg/mL (≈ 90.5 µM) for the first, 25.1 µg/mL (≈ 74.2 µM) for the second.

Compared with `COCCNC(=O)c1ccc2c(c1)C(=O)c1ccccc1-2`, `CCCCn1c(=O)c(C(=O)NCc2ccco2)c(O)c2ccccc21` is lower in solubility kinetic: over 42.2 µg/mL for the first, under 0.4 µg/mL for the second.

Compared with `Cc1cccc(C(CC(=O)N2CCCCC2)c2ccccc2)c1O` (stereo not given), `CCC(NC(=S)NCc1ccc(F)cc1)c1ccccc1` (stereo not given) is 4.2-fold higher in solubility kinetic: 0.8 µg/mL (≈ 2.47 µM) for the first, 3.4 µg/mL (≈ 11.2 µM) for the second.

First: COc1cc(OC)cc(C2=NC3(CCC(C)CC3)NC2=S)c1 (stereo not given)
Second: CCc1cccc(CC)c1NC(=O)CN1CCc2cc(OC)c(OC)cc2C1
The solubility kinetic of the first is 18-fold lower: 2.2 µg/mL (≈ 6.91 µM) for the first, 38.8 µg/mL (≈ 101 µM) for the second.

Compared with `CC(CNS(=O)(=O)c1ccccc1)Sc1ncccn1` (stereo not given), `CCOc1ccccc1NC(=S)NC(=O)c1ccco1` is lower in solubility kinetic: over 46.4 µg/mL for the first, 1.9 µg/mL (≈ 6.54 µM) for the second.

`Fc1ccc(OCCOCCN2CCCC2)cc1` and `CCCCOc1ccc(N=Cc2ccc[nH]2)cc1` are within 1.5-fold of each other in solubility kinetic: 28 µg/mL (≈ 111 µM) for the first, 34.9 µg/mL (≈ 144 µM) for the second.

First: COC(=O)C1CCCN1C(=O)C12CC3CC(CC(C3)C1)C2 (stereo not given)
Second: CCOc1ncccc1C(=O)OC(C)C(=O)NC1CCCCC1 (stereo not given)
The solubility kinetic of the first is lower: 41.9 µg/mL (≈ 144 µM) for the first, over 48.1 µg/mL for the second.

First: CC(C)=CCN1CCN(CC#Cc2ccccc2)CC1CCO (stereo not given)
Second: O=C1C(Cc2ccc(O)cc2)NC(=S)N1Cc1ccccc1 (stereo not given)
The solubility kinetic of the first is lower: 37.9 µg/mL (≈ 121 µM) for the first, over 46.9 µg/mL for the second.

`O=C(Nc1cc2c(cc1Br)OCCCO2)c1cccnc1` and `O=C(O)c1ccccc1C(=O)Nc1nc(-c2ccc3ccccc3c2)cs1` cannot be ordered by solubility kinetic: over 52.4 µg/mL for the first, over 56.2 µg/mL for the second.

First: COc1ccc(C2c3ccc(O)cc3Oc3ncn(CC(C)C)c(=N)c32)cc1 (stereo not given)
Second: O=[N+]([O-])c1ccc(N2CCN(Cc3cccc([N+](=O)[O-])c3)CC2)cc1
The solubility kinetic of the first is 7.4-fold higher: 53.8 µg/mL (≈ 143 µM) for the first, 7.3 µg/mL (≈ 21.3 µM) for the second.

— PubChem BioAssay AID1996
